# Experimental data published in US20240287082A1, “NEW BENZODIAZEPINE DERIVATIVES AS GABA A GAMMA1 PAM” (Hoffmann-La Roche Inc., priority 2021, published 2024).
# Like-named read-outs stand apart in the source and are kept apart here.
# Columns and labels:
# [1] = biological target: human GABAA α2β2γ1 receptor (Homo sapiens (Human), UniProt P47869+Q8N1C3); test: Radioligand binding assay, competition for [3H]RO7239181, γ1-containing GABAA subtype α2β2γ1; details: for γ2/γ1 Selectivity Ratio: Ki α1β3γ2 (nM)/Ki α2β2γ1 (nM); for LogSel: Log[Ki α1β3γ2 (nM)/Ki α2β2γ1 (nM)]
# Protocol: The affinity of compounds at GABAA γ1 subunit-containing receptors was measured by competition for [^3H]RO7239181 (67.3 Ci/mmol; Roche) binding to membranes from HEK293F cells (ThermoFisher R^79007) expressing human (transiently transfected) receptors of composition α5β2γ1, α2β2γ1, α1β2γ1.
# Harvested pellets from HEK293F cells expressing the different GABAA receptor subtypes were resuspended in Mannitol Buffer pH 7.2-7.4 (Mannitol 0.29M, Triethylamine 10 mM, Acetic acid 10 mM, EDTA 1 mM plus protease inhibitors (20 tablets Complete, Roche Diagnostics Cat. No. 05 056 489 001 per liter)), washed two times and then resuspended at 1:10 to 1:15 dilution in the same buffer. Cell disruption was performed by stirring the suspension in a Parr vessel #4637 at 435 psi for 15 minutes, and then the suspensions were centrifuged at 1000×g for 15 minutes at 4° C. (Beckman Avanti J-HC: rotor JS-4.2). The supernatant (S1) was transferred in a 21 Schott flask and the pellet (P1) was resuspended with Mannitol Buffer up to 175 ml. The resuspended pellet was transferred into a 250 ml Corning centrifugal beaker and centrifuged at 1500×g for 10 minutes at 4° C. (Beckman Avanti J-HC: rotor JS-4.2). The supernatant (S1) was then transferred in the 21 Schott flask and the pellet was discarded. The supernatants (S1) were centrifuged in 500 ml Beckman polypropylene centrifugal beaker at 15 000×g for 30 minutes at 4° C. (Beckman Avanti J-20 XP: rotor JLA-10.500). The pellet (P2) was resuspended with Mannitol Buffer 1:1 and frozen at −80° C. The supernatant (S2) was centrifuged in 100 ml Beckman polypropylene centrifugal tubes at 48000×g for 50 minutes at 4° C. (Beckman Avanti J-20 XP: rotor JA-18). The supernatant (S3) was discarded and the pellet (P3) was resuspended with 1:1 Mannitol Buffer. The P2 and P3 protein concentration was determined with the BIORAD Standard assay method with bovine serum albumin as standard and measured on the NANO-Drop 1000. The membrane suspension was aliquots (500 μl per tube) and stored at −80° C. until required.
# Membrane homogenates were resuspended and polytronised (Polytron PT1200E Kinematica AG) in Potassium Phosphate 10 mM, KCl 100 mM binding buffer at pH 7.4 to a final assay concentration determined with a previous experiment.
# Assays were incubated to equilibrium for 1 hour at 4° C. and then, membranes were filtered onto unifilter (96-well white microplate with bonded GF/C filters preincubated 20-50 minutes in 0.3% Polyethylenimine) with a Filtermate 196 harvester (Packard BioScience) and washed 4 times with cold Potassium Phosphate 10 mM pH 7.4, KCl 100 mM binding buffer. After anhydrousing, filter-retained radioactivity was detected by liquid scintillation counting. Ki values were calculated using Excel-Fit (Microsoft) and are the means of two determinations.
# [2] = biological target: human GABAA α1β3γ2 receptor (Homo sapiens (Human), UniProt P14867+P18507); test: Radioligand binding assay, competition for [3H]Flumazenil, γ2-containing GABAA subtype α1β3γ2
# Protocol: The affinity of compounds at GABAA γ2 subunit-containing receptors was measured by competition for [^3H]Flumazenil (81.1 Ci/mmol; Roche) binding to HEK293F cells expressing human (transiently transfected) receptors of composition α1β3γ2.
# Harvested pellets from HEK293F cells expressing the different GABAA γ2 receptor subtypes were resuspended in Mannitol Buffer pH 7.2-7.4 and processed as described above for the cells expressing the GABAA γ1 subunit-containing receptors.
# Assays were incubated to equilibrium for 1 hour at 4° C. and harvested onto GF/C uni-filters (Packard) by filtration using a Packard harvester and washing with ice-cold wash buffer (50 mM Tris; pH 7.5). After anhydrousing, filter-retained radioactivity was detected by liquid scintillation counting. Ki values were calculated using Excel-Fit (Microsoft) and are the means of two determinations.
# h-GABA-A α2β2γ1 = h-GABA-A α2β2γ1 (Homo sapiens (Human), UniProt P47869+Q8N1C3); test: Two-electrode voltage clamp electrophysiology in Xenopus oocytes expressing GABAA receptors, modulation of GABA EC20 current; type: cell-based; details: for Efficacy (GABA) %: % modulation of GABA EC20 = 100*(Fold increase−1), compound at 30-fold Ki α2β2γ1; for Fold increase h-GABA-A α2β2γ1 oocyte @ 30-fold Ki: Xenopus oocytes, GABA EC20, test compound at approx. 30-fold its Ki α2β2γ1
# Protocol: Xenopus laevis oocytes at maturation stages V-VI were used for the expression of cloned mRNA encoding GABAA receptor subunits. Oocytes ready for RNA micro-injection were bought from Ecocyte, Castrop-Rauxel, Germany and stored in modified Barth's medium (composition in mM: NaCl 88, KCl 1, NaHCO3 2.4, HEPES 10, MgSO4 0.82, CaNO3 0.33, CaCl2 0.33, pH=7.5) at 20° C. until the experiment.
# Oocytes were plated in 96-well plates for microinjection using the Roboinject automated instrument (MultiChannelSystems, Reutlingen, Germany). Approximately 50 nL of an aqueous solution containing the RNA transcripts for the subunits of the desired GABAA receptor subtype was injected into each oocyte. […] Oocytes were kept in modified Barth's medium (composition in mM: NaCl 88, KCl 1, NaHCO3 […], HEPES 10, MgSO4 0.82, CaNO3 0.33, CaCl2 0.33, pH=7.5) at 20° C. until the experiment.
# Electrophysiological experiments were performed using the Roboocyte instrument (MultiChannelSystems, Reutlingen, Germany) on days 3 to 5 after the micro-injection of mRNA. During the experiment the oocytes were constantly superfused by a solution containing (in mM) NaCl 90, KCl 1, HEPES 5, MgCl2 1, CaCl2 1 (pH 7.4). Oocytes were impaled by two glass microelectrodes (resistance: 0.5-0.8 MΩ) which were filled with a solution containing KCl 1M+K-acetate 1.5 M and voltage-clamped to −80 mV. The recordings were performed at room temperature using the Roboocyte two-electrode voltage clamp system (Multichannelsystem). After an initial equilibration period of 1.5 min GABA was added for 1.5 min at a concentration evoking approximately 20% of a maximal current response (EC20). After another rest interval of 2.5 min GABA was again added evoking a response of similar amplitude and shape. […] Current traces were recorded at a digitization rate of 10 Hz during and shortly before and after the GABA application.
# Each compound and concentration was tested on at least 3 oocytes. Different oocytes were used for different compound concentrations.
# For the analysis, the digitized current traces of the first and second GABA response were superimposed and, if necessary, rescaled to equal maximal amplitudes. The ratio between the two responses during the time interval of test compound application was calculated point by point. The extremum of the resulting “ratio trace” was taken as the efficacy (“Fold increase”) of the compound expressed as “% modulation of GABA EC20” (100*(Fold increase−1)).
# [3] = Table 2, membranes of HEK293F cells, [3H]RO7239181, read-out: Ki h-GABAA α2β2γ1
# [4] = membranes of HEK293F cells, [3H]RO7239181 20-30 nM, mean of two determinations, read-out: Ki h-GABAA α2β2γ1
# [5] = HEK293F cell membranes, [3H]Flumazenil 1 nM, mean of two determinations, read-out: Ki h-GABAA α1β3γ2
# [6] = read-out: Ki h-GABAA α2β2γ1, Table 2, membranes of HEK293F cells, [3H]RO7239181
SMILES,γ2/γ1 Selectivity Ratio [1],LogSel [1],"Ki [1, 3]","Ki [1, 4]","Ki [2, 5]",Efficacy (GABA) % (h-GABA-A α2β2γ1),Fold increase h-GABA-A α2β2γ1 oocyte @ 30-fold Ki (h-GABA-A α2β2γ1),Ki [1],"Ki [1, 6]",Ki [2]
"CCOCCc1cn2c(nc1=O)CN=C(c1c(F)cccc1F)c1c-2ccc(Cl)c1Cl [Example 24, 8,9-dichloro-7-(2,6-difluorophenyl)-2-(2-ethoxyethyl)-5H-pyrimido[1,2-a][1,4]benzodiazepin-3-one]",60.1,1.78,30.3 nM,30.3 nM,1820 nM,120%,2.20,,,
"O=c1ccn2c(n1)CN=C(c1c(F)cccc1F)c1c-2ccc(Cl)c1Cl [Example 2, 8,9-dichloro-7-(2,6-difluorophenyl)-5H-pyrimido[1,2-a][1,4]benzodiazepin-3-one]",47.7,1.68,,,,88%,1.88,9.7 nM,9.7 nM,462 nM
"CCOCCc1cn2c(nc1=O)[C@H](C)N=C(c1c(F)cccc1F)c1c-2ccc(Cl)c1Cl [Example 21, (5S)-8,9-dichloro-7-(2,6-difluorophenyl)-2-(2-ethoxyethyl)-5-methyl-5H-pyrimido[1,2-a][1,4]benzodiazepin-3-one]",61.6,1.79,23.3 nM,23.3 nM,1440 nM,113%,2.13,,,
"CCc1cn2c(nc1=O)[C@H](C)N=C(c1c(F)cccc1F)c1c-2ccc(C(F)(F)F)c1Cl [Example 11, (5S)-8-chloro-7-(2,6-difluorophenyl)-2-ethyl-5-methyl-9-(trifluoromethyl)-5H-pyrimido[1,2-a][1,4]benzodiazepin-3-one]",151.9,2.18,,,,70%,1.7,40.1 nM,40.1 nM,6090 nM
"CCO/C=C/c1cn2c(nc1=O)CN=C(c1c(F)cccc1F)c1c-2ccc(C(F)(F)F)c1Cl [Example 25, 8-chloro-7-(2,6-difluorophenyl)-2-[(E)-2-ethoxyvinyl]-9-(trifluoromethyl)-5H-pyrimido[1,2-a][1,4]benzodiazepin-3-one]",306.4,2.49,47.9 nM,47.9 nM,14700 nM,81%,1.81,,,
"CCO/C=C/c1cn2c(nc1=O)[C@H](C)N=C(c1c(F)cccc1F)c1c-2ccc(Cl)c1Cl [Example 19, (5S)-8,9-dichloro-7-(2,6-difluorophenyl)-2-[(E)-2-ethoxyvinyl]-5-methyl-5H-pyrimido[1,2-a][1,4]benzodiazepin-3-one]",48.4,1.68,24.1 nM,24.1 nM,1170 nM,104%,2.04,,,
"CCO/C=C/c1cn2c(nc1=O)CN=C(c1c(F)cccc1F)c1c-2ccc(Cl)c1Cl [Example 22, 8,9-dichloro-7-(2,6-difluorophenyl)-2-[(E)-2-ethoxyvinyl]-5H-pyrimido[1,2-a][1,4]benzodiazepin-3-one]",73.8,1.87,15.3 nM,15.3 nM,1130 nM,113%,2.13,,,
"CNC(=O)c1cn2c(nc1=O)[C@H](C)N=C(c1c(F)cccc1F)c1c-2ccc(C(F)(F)F)c1Cl [Example 27, (5S)-8-chloro-7-(2,6-difluorophenyl)-N,5-dimethyl-3-oxo-9-(trifluoromethyl)-5H-pyrimido[1,2-a][1,4]benzodiazepine-2-carboxamide]",292.9,2.47,30.8 nM,30.8 nM,9010 nM,113%,2.13,,,
"C[C@@H]1N=C(c2c(F)cccc2F)c2c(ccc(Cl)c2Cl)-n2ccc(=O)nc21 [Example 4, (5S)-8,9-dichloro-7-(2,6-difluorophenyl)-5-methyl-5H-pyrimido[1,2-a][1,4]benzodiazepin-3-one]",68.7,1.84,,,,105%,2.05,13.3 nM,13.3 nM,912 nM
"CCOCCc1cn2c(nc1=O)CN=C(c1c(F)cccc1F)c1c-2ccc(C(F)(F)F)c1Cl [Example 26, 8-chloro-7-(2,6-difluorophenyl)-2-(2-ethoxyethyl)-9-(trifluoromethyl)-5H-pyrimido[1,2-a][1,4]benzodiazepin-3-one]",400.1,2.60,75 nM,75 nM,> 30000 nM,113%,2.13,,,
"O=c1ccn2c(n1)CN=C(c1ncccc1F)c1c-2ccc(Cl)c1Cl [Example 3, 8,9-dichloro-7-(3-fluoro-2-pyridyl)-5H-pyrimido[1,2-a][1,4]benzodiazepin-3-one]",19.6,1.29,,,,192%,2.92,112 nM,112 nM,2190 nM
